The text below walks through data of US9914735B2, “Heteroaryl Syk inhibitors” (Boehringer Ingelheim International GmbH, priority 2014, dated 2018).

Molecules are shown by their SMILES. Like-named read-outs stand apart in the source and are kept apart here.

What all share (assay type): biochemical
For assay [1], the target named is Recombinant human Syk (amino acids 342-635), GST-Syk kinase fusion protein (Homo sapiens (Human), UniProt P43405). Nature of the assay: Syk kinase test (Kinase Glo luminescence). Here is the method: (§1) The output file of the reader is a csv file that contains the well number and measured relative light units (RLU). For data evaluation and calculation, the measurement of the negative control was set as 100% ctrl and the measurement of the positive control was set as 0% ctrl. Based on this values the % value for the measurement of each substance concentration was calculated using an Assay Explorer software (Accelrys). Normally, the % ctrl values calculated are between 0% and 100% values but may also occur outside these limits in individual cases based on variability or compound characteristics. The IC50 values were calculated from the % ctrl values using Assay Explorer software. Calculation:[y=(a−d)/(1+(x/c)^b)+d] a=low value, d=high value; x=conc M; c=IC50 M; b=hill; y=% ctrl.
On the technique in general: Kinase-Glo measures the ATP left after a reaction by luminescence.

The target of assay [2] is Recombinant human Aurora B (amino acids 1-344) (Homo sapiens (Human), UniProt Q96GD4). Nature of the assay: Aurora B kinase test (ADP Glo luminescence). Here is the method:
The activity of the Aurora B kinase protein was determined using the ADP Glo® Luminescence Kinase test (Promega; V9103X).
Serial Dilution is done in 1:10 steps in 100% DMSO.
Then 20 μl Kinase detection mix (Detection Buffer #V913B Promega; Kinase Detection Substrate #V914B Promega) were added and incubated for 40 minutes at room temperature.
as §1, with “measured RLU.” for “measured relative light units (RLU).”, “as 0%” for “as 100%”, “as 100%” for “as 0%”, “software. Calculation: [y=(a−d)/(1+(x/c)^b)+d],” for “software. Calculation:[y=(a−d)/(1+(x/c)^b)+d]”

The next assay addresses FLT3 (Homo sapiens (Human), UniProt P36888). Nature of the assay: FLT3 kinase test (Z'-LYTE). Here is the method:
The activity of FLT3 is measured using the Z′-LYTETM assay technology from Invitrogen (#PV3191)
The reaction is started by addition of 2.5 μl of the 4×ATP solution.
Positive controls are reaction mixtures containing no test compound; negative controls (blanks) are reaction mixtures containing no kinase. As a further control, the phosphopeptide solution is added to wells without kinase (=100% phosphorylation control).
The reaction is performed for 1 h at room temperature before 5 μl of the development solution is added. After a further incubation for 1 h at room temperature 5 μl of the stop reagent is added.
The output text file is evaluated in an “MS-Excel—VB-Makro” and “GraphPadPrism” (Version 5) (GraphPad Software Inc.) is used to calculate the results. Data for the inhibition of FLT3 are reported in M. data for the inhibition of the protease are reported in % CTL.

The mark [3] stands for this setting: Table 1, read-out: SYK-inhibition IC50-value.
The mark [4] stands for this setting: Table 1, read-out: AURB-inhibition IC50-value.
Where [5] appears, read: Table 1, read-out: FLT3-inhibition IC50-value.

The IC50 is the concentration that inhibits the measured activity by half.

Chain of Recombinant human Aurora B (amino acids 1-344) (Q96GD4 whole entry, the tested form may be a part): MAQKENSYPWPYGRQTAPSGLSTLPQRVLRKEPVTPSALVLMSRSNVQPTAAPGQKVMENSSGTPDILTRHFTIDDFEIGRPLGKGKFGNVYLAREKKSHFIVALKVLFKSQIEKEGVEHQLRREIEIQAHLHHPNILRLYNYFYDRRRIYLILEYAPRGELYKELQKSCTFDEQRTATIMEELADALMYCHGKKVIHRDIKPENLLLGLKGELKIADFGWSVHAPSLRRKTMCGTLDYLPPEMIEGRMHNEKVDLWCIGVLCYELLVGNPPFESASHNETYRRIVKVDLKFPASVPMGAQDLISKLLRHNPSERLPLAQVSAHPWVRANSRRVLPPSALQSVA
Chain of FLT3 (P36888 27-993): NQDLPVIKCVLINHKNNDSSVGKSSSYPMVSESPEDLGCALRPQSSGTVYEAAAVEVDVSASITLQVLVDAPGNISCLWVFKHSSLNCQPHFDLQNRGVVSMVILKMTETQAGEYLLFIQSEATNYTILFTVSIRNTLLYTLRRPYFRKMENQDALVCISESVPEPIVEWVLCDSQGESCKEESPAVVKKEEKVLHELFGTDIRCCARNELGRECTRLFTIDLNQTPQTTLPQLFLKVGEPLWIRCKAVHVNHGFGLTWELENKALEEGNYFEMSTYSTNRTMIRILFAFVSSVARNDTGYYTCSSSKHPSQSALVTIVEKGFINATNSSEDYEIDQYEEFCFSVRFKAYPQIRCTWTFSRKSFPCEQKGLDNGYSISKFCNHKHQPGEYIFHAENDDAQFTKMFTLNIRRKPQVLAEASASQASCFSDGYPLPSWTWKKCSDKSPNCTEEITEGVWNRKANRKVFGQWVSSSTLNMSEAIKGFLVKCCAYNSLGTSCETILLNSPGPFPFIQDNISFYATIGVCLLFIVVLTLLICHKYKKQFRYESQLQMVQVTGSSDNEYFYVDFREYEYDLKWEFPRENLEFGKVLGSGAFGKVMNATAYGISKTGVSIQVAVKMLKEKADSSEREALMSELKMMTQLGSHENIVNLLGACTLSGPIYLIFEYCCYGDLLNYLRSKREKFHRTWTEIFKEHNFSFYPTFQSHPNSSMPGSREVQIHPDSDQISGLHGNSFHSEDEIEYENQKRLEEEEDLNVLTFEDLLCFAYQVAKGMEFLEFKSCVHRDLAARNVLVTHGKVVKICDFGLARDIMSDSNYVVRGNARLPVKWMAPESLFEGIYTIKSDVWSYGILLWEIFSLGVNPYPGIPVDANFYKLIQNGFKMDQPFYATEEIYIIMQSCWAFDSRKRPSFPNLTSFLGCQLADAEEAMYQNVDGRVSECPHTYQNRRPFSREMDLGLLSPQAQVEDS

In the case of `C[C@@H](Oc1cc(-c2ccc3c(c2)ncn3C)cc2ncccc12)[C@H]1CNC(=O)C1` [94 of WO 2013/014060], the half-inhibitory concentration (IC50) was determined as 0.001 µM in assay [1] (read-out: IC50 in μM (SYK-Inhibition)), 0.298 µM in assay [2] (read-out: IC50 in μM (AURB-Inhibition)) and 0.267 µM on FLT3 (read-out: IC50 in μM (FLT3-Inhibition)).
In the case of `C[C@@H](Oc1nc(-c2cnn(C3CCCCO3)c2)cc2nn(C)cc12)[C@H]1CNC(=O)C1` (some centres unmarked) [Example 3], the IC50 was 0.0466 µM in assay [1] (setting [3]), > 50 µM in assay [2] (setting [4]) and 17.4 µM at FLT3 (setting [5]).
For `C[C@@H](Oc1nc(-c2cnn(C3CCCCC3)c2)cc2nn(C)cc12)[C@H]1CNC(=O)C1` [Example 7, (R)-4-((R)-1-(6-(1-cyclohexyl-1H-pyrazol-4-yl)-2-methyl-2H-pyrazolo[4,3-c]pyridin-4-yloxy)ethyl)pyrrolidin-2-one] the same measures were 0.0147 µM, 37.3 µM and 5.77 µM.
For `C[C@@H](Oc1nc(-c2cnn(C3CCNCC3)c2)cc2nn(C)cc12)[C@H]1CNC(=O)C1` [Example 9, (4R)-4-[(1R)-1-[2-Methyl-6-[1-(4-piperidyl)pyrazol-4-yl]pyrazolo[4,3-c]pyridin-4-yl]oxyethyl]pyrrolidin-2-one] the same measures were 0.0424 µM, > 50 µM and 3.67 µM.
For `C[C@@H](Oc1nc(-c2cnn(C3CCC(F)(F)CC3)c2)cc2nn(C)cc12)[C@H]1CNC(=O)C1` [Example 10, (4R)-4-[(1R)-1-[6-[1-(4,4-Difluorocyclohexyl)pyrazol-4-yl]-2-methyl-pyrazolo[4,3-c]pyridin-4-yl]oxyethyl]pyrrolidin-2-one] the same measures were 0.0218 µM, 36 µM and 8.03 µM.
For the molecule `C[C@@H](Oc1nc(-c2cc3nn(C)cc3c(O[C@H](C)[C@H]3CNC(=O)C3)n2)cc2nn(C)cc12)[C@@H]1CNC(=O)C1` [Example 11, (4S)-4-[(1R)-1-[2-methyl-6-[2-methyl-4-[(1R)-1-[(3R)-5-oxopyrrolidin-3-yl]ethoxy]-pyrazolo[4,3-c]pyridin-6-yl]pyrazolo[4,3-c]pyridin-4-yl]oxyethyl]pyrrolidin-2-one], the values for the IC50 (in assay [1] (setting [3]); in assay [2] (setting [4]); on FLT3 (setting [5])) were 0.935 µM, > 50 µM and 37.4 µM, respectively.
On to `C[C@@H](Oc1nc(-c2cnn([C@H]3CC[C@H](N4CCN(C)C(=O)C4)CC3)c2)cc2nn(C)cc12)[C@H]1CNC(=O)C1` [Example 12, 1-methyl-4-[4-[4-[2-methyl-4-[(1R)-1-[(3R)-5-oxopyrrolidin-3-yl]ethoxy]pyrazolo[4,3-c]pyridin-6-yl]pyrazol-1-yl]-cyclohexyl]piperazin-2-one], for which the results for the IC50 (in assay [1] (setting [3]); in assay [2] (setting [4]); at FLT3 (setting [5])) were 0.0123 µM, 34.1 µM and 8.33 µM, respectively.
The corresponding values for `C[C@@H](Oc1nc(-c2cc3nn(C)cc3c(=O)[nH]2)cc2nn(C)cc12)[C@H]1CNC(=O)C1` [Example 13, 2-Methyl-6-[2-methyl-4-[(1R)-1-[(3R)-5-oxopyrrolidin-3-yl]ethoxy]pyrazolo[4,3-c]pyridin-6-yl]-5H-pyrazolo[4,3-c]pyridin-4-one] are 0.831 µM, > 50 µM and > 50 µM.
Take `C[C@@H](Oc1cc(-c2ccn(C)n2)cc2nn(C)cc12)[C@H]1CNC(=O)C1` [Example 14, (4R)-4-[(1R)-1-[2-methyl-6-(1-methylpyrazol-3-yl)indazol-4-yl]oxyethyl]-pyrrolidin-2-one]: the figures for the IC50 (in assay [1] (setting [3]); on FLT3 (setting [5])) were 0.0421 µM and 40.8 µM, respectively.
For `C[C@@H](Oc1cc(-c2cnn(CCC(F)(F)F)c2)cc2nn(C)cc12)[C@H]1CNC(=O)C1` [Example 15, (4R)-4-[(1R)-1-[2-Methyl-6-[1-(3,3,3-trifluoropropyl)pyrazol-4-yl]indazol-4-yl]oxyethyl]pyrrolidin-2-one], the results for the IC50 (in assay [1] (setting [3]); in assay [2] (setting [4]); on FLT3 (setting [5])) were 0.0187 µM, 33.4 µM and 10.1 µM, respectively.
The corresponding values for `C[C@@H](Oc1cc(-c2n[nH]c3ccc(C#N)cc23)cc2nn(C)cc12)[C@H]1CNC(=O)C1` [Example 16, 3-[2-methyl-4-[(1R)-1-[(3R)-5-oxopyrrolidin-3-yl]-ethoxy]indazol-6-yl]-1H-indazole-5-carbonitrile] are 0.0065 µM, > 50 µM and 10.6 µM.
The corresponding values for `Cc1nccn1Cc1ccc(-c2cc3nn(C)cc3c(O[C@H](C)[C@H]3CNC(=O)C3)n2)cc1` [Example 17] are 0.0316 µM, > 50 µM and 1.61 µM.
The corresponding values for `C[C@@H](Oc1cc(-c2ccc(N3CCCS3(=O)=O)cc2)cc2nn(C)cc12)[C@H]1CNC(=O)C1` [Example 33] are 0.0245 µM, > 50 µM and 3.88 µM.
For `C[C@@H](Oc1cc(-c2cnn(C(F)F)c2)cc2nn(C)cc12)[C@H]1CNC(=O)C1` [Example 40, (4R)-4-[(1R)-1-[6-[1-(difluoromethyl)pyrazol-4-yl]-2-methyl-indazol-4-yl]oxyethyl]pyrrolidin-2-one], the IC50 in assay [1] (setting [3]) turned out to be 0.0343 µM; in assay [2] (setting [4]) it was 31.4 µM; on FLT3 (setting [5]), 8.95 µM.
The corresponding values for `C[C@@H](Oc1cc(-c2cnc3ccc(C#N)cn23)cc2nn(C)cc12)[C@H]1CNC(=O)C1` [Example 43, 3-[2-methyl-4-[(1R)-1-[(3R)-5-oxopyrrolidin-3-yl]ethoxy]indazol-6-yl]imidazo[1,2-a]pyridine-6-carbonitrile] are 0.0649 µM, > 50 µM and 15.1 µM.
The corresponding values for `C[C@@H](Oc1cc(-c2cnn(C3CCOCC3)c2)cc2nn(C)cc12)[C@H]1CNC(=O)C1` [Example 47, (4R)-4-[(1R)-1-[2-methyl-6-(1-tetrahydropyran-4-ylpyrazol-4-yl)indazol-4-yl]oxyethyl]pyrrolidin-2-one] are 0.0067 µM, 26 µM and 4.77 µM.
The corresponding values for `C[C@@H](Oc1cc(-c2cc3cccc(Cl)c3[nH]2)cc2nn(C)cc12)[C@H]1CNC(=O)C1` [Example 48, (4R)-4-[(1R)-1-[6-(7-chloro-1H-indol-2-yl)-2-methyl-indazol-4-yl]oxyethyl]-pyrrolidin-2-one] are 0.0556 µM, > 50 µM and 16.9 µM.
For `C[C@@H](Oc1nc(-c2ccc(C3CC3)nc2)cc2nn(C)cc12)[C@H]1CNC(=O)C1` [Example 50, (4R)-4-[(1R)-1-[6-(6-Cyclopropyl-3-pyridyl)-2-methyl-pyrazolo[4,3-c]pyridine-4-yl]oxyethyl]pyrrolidin-2-one], the figures for the IC50 (in assay [1] (setting [3]); in assay [2] (setting [4]); on FLT3 (setting [5])) were 0.0554 µM, 48 µM and 9.52 µM, respectively.
For `COc1ccc2[nH]cc(-c3cc4nn(C)cc4c(O[C@H](C)[C@H]4CNC(=O)C4)n3)c2c1` [Example 53, (4R)-4-[(1R)-1-[6-(5-methoxy-1H-indol-3-yl)-2-methyl-pyrazolo[4,3-c]pyridin-4-yl]oxyethyl]pyrrolidin-2-one], the figures for the IC50 (in assay [2] (setting [4]); on FLT3 (setting [5])) were > 50 µM and 34.1 µM, respectively.
For `Cc1ccc(-c2cc3nn(C)cc3c(O[C@H](C)[C@H]3CNC(=O)C3)n2)s1` [Example 54, (4R)-4-[(1R)-1-[2-methyl-6-(5-methyl-2-thienyl)pyrazolo-[4,3-c]pyridin-4-yl]oxyethyl]-pyrrolidin-2-one], the results for the IC50 (in assay [1] (setting [3]); in assay [2] (setting [4]); at FLT3 (setting [5])) were 0.0892 µM, > 50 µM and 16 µM, respectively.
Turning to `COc1cc(-c2cc3nn(C)cc3c(O[C@H](C)[C@H]3CNC(=O)C3)n2)ccc1OC1CCOCC1` [Example 73, (4R)-4-[(1R)-1-[6-(3-Methoxy-4-tetrahydropyran-4-yloxy-phenyl)-2-methyl-pyrazolo[4,3-c]pyridin-4-yl]oxyethyl]pyrrolidin-2-one], the results for the IC50 (in assay [2] (read-out: AURB-inhibition IC50-value); at FLT3 (setting [5])) were 49.1 µM and 4.17 µM, respectively.
In the case of `C[C@@H](Oc1nc(-c2cnn(C3CCN(C)CC3)c2)cc2nn(C)cc12)[C@H]1CNC(=O)C1` [Example 82, (4R)-4-[(1R)-1-[2-Methyl-6-[1-(1-methyl-4-piperidyl)pyrazol-4-yl]pyrazolo [4,3-c]pyridin-4-yl]oxyethyl]pyrrolidin-2-one], the results for the IC50 (in assay [2] (setting [4]); at FLT3 (setting [5])) were > 50 µM and 7.78 µM, respectively.
